Structures can show the parent of a compound that is named as a salt.
Target: T1, human FXa (Homo sapiens, UniProt P00742)
T1 construct: purchased Enzyme Research Labolatories, Inc
Assay: Determination of human FXa-inhibiting effect (IC50 value), chromogenic substrate S-2222
Assay type: biochemical
Details: substrate S-2222, absorbance at 405 nm, room temperature
Description: Determination of Human FXa-Inhibiting Effect (IC50 Value):
As a control, Tris buffer was used in place of the test compound.

T1 sequence (P00742 235-488 limits assumed): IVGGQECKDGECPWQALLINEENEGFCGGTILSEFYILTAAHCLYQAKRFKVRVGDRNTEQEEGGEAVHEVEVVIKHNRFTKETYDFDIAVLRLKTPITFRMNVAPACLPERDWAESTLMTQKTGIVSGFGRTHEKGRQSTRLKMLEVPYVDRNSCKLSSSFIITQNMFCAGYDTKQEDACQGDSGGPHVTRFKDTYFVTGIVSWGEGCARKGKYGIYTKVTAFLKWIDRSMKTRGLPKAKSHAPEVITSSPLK
T1 sequence (P00742 41-179 partner limits assumed): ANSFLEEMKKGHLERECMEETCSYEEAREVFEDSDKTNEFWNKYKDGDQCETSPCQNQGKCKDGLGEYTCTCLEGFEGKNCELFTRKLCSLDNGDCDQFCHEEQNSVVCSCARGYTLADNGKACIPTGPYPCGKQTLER

Row | SMILES | IC50
1 | CN1CCc2nc(C(=O)N[C@@H]3C[C@@H](n4cnnc4)CC[C@@H]3NC(=O)C(=O)Nc3ccc(Cl)cn3)sc2C1 [Ex. 394, N^1-(5-chloropyridin-2-yl)-N^2-(1S,2R,4S)-2-{[(5-methyl-4,5,6,7-tetrahydrothiazolo[5,4-c]pyridin-2-yl)carbonyl]amino}-4-(4H-1,2,4-triazol-4-yl)cyclohexyl)ethanediamide hydrochloride] | 1.1 nM
2 | CN1CCc2nc(C(=O)N[C@@H]3C[C@@H](n4cccc4)CC[C@@H]3NC(=O)C(=O)Nc3ccc(Cl)cn3)sc2C1 [Ex. 413, N^1-(5-chloropyridin-2-yl)-N^2-[(1S,2R,4S)-2-{[(5-methyl-4,5,6,7-tetrahydrothiazolo[5,4-c]pyridin-2-yl)carbonyl]amino}-4-(1H-pyrrol-1-yl)cyclohexyl]ethanediamide hydrochloride] | 1 nM

Now from value to compound:

Row | IC50 | SMILES
3 | 1 nM | Cc1nnc([C@H]2CC[C@H](NC(=O)C(=O)Nc3ccc(Cl)cn3)[C@H](NC(=O)c3nc4c(s3)CN(C)CC4)C2)o1 [Ex. 384, N^1-(5-chloropyridin-2-yl)-N^2-[(1S,2R,4S)-2-{[(5-methyl-4,5,6,7-tetrahydrothiazolo[5,4-c]pyridin-2-yl)carbonyl]amino}-4-(5-methyl-1,3,4-oxadiazol-2-yl)cyclohexyl]ethanediamide hydrochloride]
4 | 1.3 nM | CN1CCc2nc(C(=O)N[C@@H]3C[C@@H](c4nnco4)CC[C@@H]3NC(=O)C(=O)Nc3ccc(Cl)cn3)sc2C1 [Ex. 385, N^1-(5-chloropyridin-2-yl)-N^2-[(1S,2R,4S)-2-{[(5-methyl-4,5,6,7-tetrahydrothiazolo[5,4-c]pyridin-2-yl)carbonyl]amino}-4-(1,3,4-oxadiazol-2-yl)cyclohexyl]ethanediamide]
5 | 0.72 nM | Cc1nnc([C@H]2CC[C@H](NC(=O)C(=O)Nc3ccc(Cl)s3)[C@H](NC(=O)c3nc4c(s3)CN(C)CC4)C2)o1 [Ex. 395, N^1-(5-chloro-2-thienyl)-N^2-((1S,2R,4S)-4-(5-methyl-1,3,4-oxadiazol-2-yl)-2-{[(5-methyl-4,5,6,7-tetrahydrothiazolo[5,4-c]pyridin-2-yl)carbonyl]amino}cyclohexyl)ethanediamide citric acid salt]
6 | 1.1 nM | Cc1nnc([C@H]2CC[C@H](NC(=O)C(=O)Nc3ccc(Br)cn3)[C@H](NC(=O)c3nc4c(s3)CN(C)CC4)C2)o1 [Ex. 396, N^1-(5-bromo-2-pyridinyl)-N^2-((1S,2R,4S)-4-(5-methyl-1,3,4-oxadiazol-2-yl)-2-{[(5-methyl-4,5,6,7-tetrahydrothiazolo[5,4-c]pyridin-2-yl)carbonyl]amino}cyclohexyl)ethanediamide hydrochloride]
7 | 1.1 nM | C#Cc1ccc(NC(=O)C(=O)N[C@H]2CC[C@H](c3nnc(C)o3)C[C@H]2NC(=O)c2nc3c(s2)CN(C)CC3)nc1 [Ex. 402, N^1-(5-ethynylpyridin-2-yl)-N^2-((1S,2R,4S)-4-(5-methyl-1,3,4-oxadiazol-2-yl)-2-{[(5-methyl-4,5,6,7-tetrahydrothiazolo[5,4-c]pyridin-2-yl)carbonyl]amino}cyclohexyl)ethanediamide]

Test system: not given
Assay: not given
Details: not given

Row | melting point | SMILES
8 | 176 to 179 °C (dec.) | CN1CCc2nc(C(=O)N[C@@H]3C[C@@H](C(=O)N(C)C)CC[C@@H]3NC(=S)C(=O)Nc3ccc(F)cn3)sc2C1 (hydrate or solvate)
9 | 244 to 249 °C | CN1CCc2nc(C(=O)N[C@@H]3CCS(=O)(=O)C[C@H]3NC(=O)c3cc4cc(F)ccc4[nH]3)sc2C1 (relative stereo) (as salt: hydrochloride) [Example 183, N-((3R*,4R*)-3-{[(5-Fluoroindol-2-yl)carbonyl]amino}-1,1-dioxohexahydro-1-thiopyran-4-yl)-5-methyl-4,5,6,7-tetrahydrothiazolo[5,4-c]pyridine-2-carboxamide hydrochloride]

Reference: patent US7576135B2, “Diamine derivatives” (Daiichi Pharmaceutical Co., Ltd., priority 2002, dated 2009)
